From patent US9073861B2, “Diphenylmethyl piperazine derivative and pharmaceutical composition using same” (AETAS PHARMA CO., LTD., priority 2011, dated 2015)

What was measured:
normal rats = test: Hemodynamics before and after intravenous administration in anesthetized normal rats (left ventricular pressure catheter); assay type: in vivo, Wistar male rats; details: 0.1 mg/kg/min for 10 min i.v.; for maximum +dP/dt after administration as compared to that by the comparative compound [A]: FIG. 7; for maximum −dP/dt after administration as compared to that by the comparative compound [A]: FIG. 8
Description: Wistar male rats were bred for a week and then anesthetized by inhalation of 3% isoflurane. A pressure sensor-tipped catheter (2F Millar) was inserted into the left ventricle from the right common carotid artery, and a polyethylene tube (SP10) for injection of the compounds of the present invention or physiological saline was inserted from the right femoral vein. After stabilizing hemodynamics for 10 minutes, the compound [2] of the present invention was administered from the polyethylene tube at 0.1 mg/kg/min for 10 min, and the cardiac rate, left ventricular pressure, maximum +dP/dt, and maximum −dP/dt were measured for 20 heart beats every minute. In the control group, only physiological saline, which is a solvent, was administered. It is noted that the injection rate of each solution was 16.6 μl per min.
The cardiac rate, maximum left ventricular pressure, maximum +dP/dt and maximum −dP/dt before administration of a drug were considered as 100%, and the values after administration were represented by values (% representation) relative to the values before administration. Using n=3 rats, experiments were carried out. Data are shown as mean and standard deviation. Consequently, cardiac rate before and after administration (the left side in FIG. 1) and changes in the maximum left ventricular pressure (the right side in FIG. 1) are shown in FIG. 1, and changes in the maximum +dP/dt (the left side in FIG. 2) and changes in the maximum −dP/dt (the right side in FIG. 2) are shown in FIG. 2.
(§1) Wistar male rats were bred for a week and then anesthetized by inhalation of 3% isoflurane. Experiments were carried out in the same manner as in Test Example 1, and the compound [3] of the present invention was administered as a test compound at 0.1 mg/kg/min for 10 min, and the cardiac rate, left ventricular pressure, maximum +dP/dt, and maximum −dP/dt were measured for 20 heart beats every minute. The maximum +dP/dt or the maximum −dP/dt before administration was considered as 100%, and the value after administration was represented by a value (% representation) relative to the value before administration. Data are shown as mean and standard deviation. Using n=3 rats, experiments were carried out.
as §1, with “[4]” for “[3]”
Wistar male rats were bred for a week and then anesthetized by inhalation of 3% isoflurane. Experiments were carried out in the same manner as in Test Example 1, and the comparison comparative compound [A] was administered as a test compound at 0.1 mg/kg/min for 10 min, and the cardiac rate, left ventricular pressure, maximum +dP/dt, and maximum −dP/dt were measured for 20 heart beats every minute. The maximum +dP/dt or the maximum −dP/dt before administration was considered as 100%, and the value after administration was represented by a value (% representation) relative to the value before administration. Data are shown as mean and standard deviation. Using n=3 rats, experiments were carried out.
From the results of the tests carried out in Test Examples 1, 3, 4 and 5, the maximum +dP/dt (FIG. 7) and the maximum −dP/dt (FIG. 8) after administration of the compound [2], and compound [3], and compound [4] of the present invention as well as the comparative compound [A] were compared and examined.

[1] = tested on: rats with obsolete myocardial infarction; test: Effect on myocardial contraction and relaxation in rats with obsolete myocardial infarction (coronary ligation, one month after operation); assay type: in vivo, Wistar male rats; details: 0.1 mg/kg/min for 10 min i.v., n=3
From the text: Wistar male rats were anesthetized by inhalation of 3% isoflurane. The chest was opened at the left third intercostal space and the pericardial membrane was incised. The left anterior descending coronary artery was completely ligated with silk string (6.0; Ethicon) in the infarction group, and then the chest was immediately closed. Following this procedure, the inserted endotracheal tube was removed, and rats were awakened and then returned to a breeding room.
One month after operation, rats were anesthetized and endotracheally intubated, a pressure sensor-tipped catheter (2F Millar) was inserted into the left ventricle from the right common carotid artery, and a polyethylene tube (SP10) for injection of physiological saline or the compounds of the present invention was inserted from the right femoral vein in the same manner as in Test Example 1. After stabilizing hemodynamics for 10 minutes, the compound [2] of the present invention was administered from the polyethylene tube at 0.1 mg/kg/min for 10 min, and the cardiac rate, left ventricular pressure, maximum +dP/dt, and maximum −dP/dt were measured for 20 heart beats every minute. In the control group, only physiological saline, which is a solvent, was administered. It is noted that the injection rate of each solution was 16.6 μl per min. Using n=3 rats, experiments were carried out.
The maximum +dP/dt or the maximum −dP/dt before administration was considered as 100%, and the value after administration was represented by a value (% representation) relative to the value before administration. Data are shown as mean and standard deviation.

| Structure (SMILES) | maximum +dP/dt (index of contractile function) after vs before administration (normal rats; pre-administration = 100%, n=3) | maximum −dP/dt (index of relaxing function) after vs before administration (normal rats; pre-administration = 100%, n=3) | maximum +dP/dt after administration as compared to that by the comparative compound [A] (normal rats) | maximum −dP/dt after administration as compared to that by the comparative compound [A] (normal rats) | cardiac rate after administration relative to before administration (normal rats; pre-administration = 100%, n=3) | left ventricular pressure after administration relative to before administration (normal rats; pre-administration = 100%, n=3) | cardiac rate after vs before administration [1] | left ventricular pressure after vs before administration [1] | maximum +dP/dt after vs before administration ([1]; pre-administration = 100%) | maximum −dP/dt after vs before administration ([1]; pre-administration = 100%) |
| --- | --- | --- | --- | --- | --- | --- | --- | --- | --- | --- |
| OC(CN1CCN(C(c2ccccc2)c2ccccc2)CC1)CN1CCC(O)(c2ccc(Cl)cc2)CC1 (centres unmarked) [comparative compound [A], 1-[4-(diphenylmethyl)piperazinyl]-3-[4-(4-chlorophenyl)-4-hydroxy-piperidinyl]-2-propanol, reference compound] | tended to slightly increase after administration of the comparative compound [A], but significant changes were not observed | tended to slightly increase after administration of the comparative compound [A], but significant changes were not observed |  |  |  |  |  |  |  |  |
| OC(CN1CCN(C(c2ccccc2)c2ccccc2)CC1)CN1CCC(O)(c2ccccc2)CC1 (centres unmarked) [compound [2], 1-[4-(diphenylmethyl)piperazinyl]-3-(4-hydroxy-4-phenyl-piperidinyl)-2-propanol] | significant increases | significant increases | significantly raised | significantly raised | not increased | significantly raised | significant changes in the cardiac rate were not observed | significantly increased | significantly increased | significantly increased |
| Cc1ccc(C2(O)CCN(CC(O)CN3CCN(C(c4ccccc4)c4ccccc4)CC3)CC2)cc1 (centres unmarked) [compound [4], 1-[4-(diphenylmethyl)piperazinyl]-3-[4-hydroxy-4-(4-methylphenyl)-piperidinyl]-2-propanol] | significantly increased | significantly increased | significantly raised | significantly raised |  |  |  |  |  |  |
| OC1(c2ccc(Cl)cc2)CCN(CCCN2CCN(C(c3ccccc3)c3ccccc3)CC2)CC1 [compound [3], 1-[4-(diphenylmethyl)piperazinyl]-3-[4-(4-chlorophenyl)-4-hydroxy-piperidinyl]propane] | significantly increased | significantly increased | significantly raised | significantly raised |  |  |  |  |  |  |
